Consider 1 compound from patent US12447167B2, “GM-CSF-producing t-cell control agent and Th1/Th2 immune balance regulator” (National Center of Neurology and Psychiatry, priority 2014, dated 2025).

For the assay, the system named is GM-CSF-producing CD4-positive memory T-cells. The experiment in a line: GM-CSF-producing CD4-positive memory T-cells in PBMCs of normal subjects after single oral dose (FACS). The class given is in vivo, human. As for the experimental part:
A single dose of compound 31, which is a synthetic glycolipid of the present invention, described in the first aspect, i.e., (2S,3S,4R)-1-O-(α-D-galactosyl)-2-(N-tetracosanoylamino)-1,3,4-nonanetriol represented by the following formula (III), was orally administered to each of subjects of 4 cohorts (A, B, C, and D cohorts) each consisting of 3 normal subjects shown in Table 1 above after obtainment of informed consent.
The dose was set to 0.3 mg per person for A cohort, 1 mg per person for B cohort, 3 mg per person for C cohort, and 10 mg per person for D cohort.
Subsequently, T-cell subfractions were prepared from the peripheral blood of each subject by using the density gradient centrifugation method. First, a total of 20 mL of blood was collected from the vein of each subject 24 hours (1st day), 48 hours (2nd day), 72 hours (3rd day), and 168 hours (7th day) after the administration of compound 31 by using two 10-mL heparin sodium-containing vacuum blood collection tubes. For a control, 20 mL of blood was similarly collected from the vein of each subject one day before the administration of compound 31.
Next, 4 mL of Ficoll-Paque Plus (GE Healthcare Biosciences Corp.) was placed in each of four 15-mL conical tubes, and 10 mL of blood diluted twice with phosphate buffered saline (PBS) was gently layered thereon. Then, density gradient centrifugation was performed by centrifugation at 1800 rpm at ordinary temperature for 30 minutes. After the centrifugation, a supernatant containing plasma and platelet was discarded, and lymphocytes present at the boundary layer between the supernatant layer and the Ficoll-Paque Plus layer were recovered into a fresh 50-mL conical tube. The 50-mL conical tube was filled by adding PBS thereto, followed by centrifugation at 1800 rpm at ordinary temperature for 5 minutes. […] After a supernatant was removed by suction again, a single cell suspension was prepared by adding 1 mL of AIM-V medium (Life Technologies Corp.), and then, the number of cells was measured with a counting chamber. […]

Consider `CCCCCCCCCCCCCCCCCCCCCCCC(=O)NC(COC1OC(CO)C(O)C(O)C1O)[C@H](O)C(O)CCCCC` (stereo in doubt) [compound 31, (2S,3S,4R)-1-O-(α-D-galactosyl)-2-(N-tetracosanoylamino)-1,3,4-nonanetriol], for which, for the setting “A cohort, 0.3 mg single oral (low dose)”, the “suppressive effects on CD4-positive memory T-cells” value was “high suppressive effects”. Besides, the “growth of GM-CSF-producing CD4-positive memory T-cells” value (C and D cohorts (3 mg, 10 mg), 1 day after administration, transient) is listed as “promoted”. In addition, the “proportion of GM-CSF-producing CD4-positive memory T-cells in PBMCs” value (single oral dose, all cohorts (0.3, 1, 3, 10 mg), after administration vs pre-administration value (day-1)) is reported as “decreased”.
